# Measurements published in publication PMC3135366 (The Journal of Experimental Medicine, 2011).
# Biological target: T1, E. coli DOXPRI (Escherichia coli, UniProt P45568)
# T1 sequence (P45568 1-398): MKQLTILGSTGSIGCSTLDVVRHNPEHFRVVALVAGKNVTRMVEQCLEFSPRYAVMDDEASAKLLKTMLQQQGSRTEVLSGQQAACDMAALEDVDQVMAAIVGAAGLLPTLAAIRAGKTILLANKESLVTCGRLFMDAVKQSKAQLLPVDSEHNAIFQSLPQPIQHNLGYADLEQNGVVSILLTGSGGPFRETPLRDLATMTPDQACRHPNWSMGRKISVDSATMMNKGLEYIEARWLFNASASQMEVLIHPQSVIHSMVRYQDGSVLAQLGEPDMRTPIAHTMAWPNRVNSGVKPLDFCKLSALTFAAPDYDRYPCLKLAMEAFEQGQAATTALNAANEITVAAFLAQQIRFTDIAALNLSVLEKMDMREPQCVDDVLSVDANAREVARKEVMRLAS
# Experiment: NADPH oxidation assay
# Assay type: biochemical
smiles,measurement,value
NC(=O)C1=CN([C@@H]2O[C@H](COP(=O)(O)OP(=O)(O)OC[C@H]3O[C@@H](n4cnc5c(N)ncnc54)[C@H](OP(=O)(O)O)[C@@H]3O)[C@@H](O)[C@H]2O)C=CC1 [NADPH],NADPH oxidation assay,noted robust activity for the E. coli enzyme expressed in parallel
